Data as given in US20150359867A1, “OVARIAN CANCER VACCINES AND VACCINATION METHODS” (IMMUNOCELLULAR THERAPEUTICS, LTD., priority 2013, published 2015).

System: T2 cells pulsed with CD133 HLA-A2 peptides
Assay: IFN-γ ELISPOT assay of antigen-specific T cell response
Format: cell-based, human
Conditions: 1×10^5 CTL co-cultured with 7.5×10^4 T2 cells pulsed with 10 μg/ml of peptides, 20 hours; FIG. 3
Description: To test this hypothesis, effector CD8^+′ T cells were isolated and co-cultured with HLA-A2+ DC pulsed with CD133 peptides to induce antigen-specific CTLs. Antigens-specific T cell responses were evaluated by an IFN-γ ELISPOT assay.
Human monocyte-derived DC was generated using previously described methods. Briefly, monocytes were isolated from PBMC by magnetic immunoselection using EasySep human monocyte enrichment kit (Stem Cell Technologies) in accordance with the manufacturer's instructions and then cultured at […] in 20 ml of GMP CellGenix DC serum-free medium (Cat#20801-0500, Cellgenix) supplemented with 1000 unit/ml of recombinant human GM-CSF (Cat#AF-300-03, Peprotech, Inc) and recombinant human IL-4(Cat#AF-200-04, Peprotech, Inc). Cells were harvested after 3 or 6 days of culture. The DCs were washed and plated in 6-well plates at a concentration of 5×10^6 cells/well IFN-γ (1000 unit/ml) and monophosphoryl lipid A (MPLA, 20-50 μg/ml) was added into the wells to mature the DC for 24 hr or 48 hrs. Prior to some assays, DC was frozen and stored into liquid nitrogen.
In order to evaluate antigen-specific immune responses, CD8^+ T cells were isolated from fresh or frozen apheresis by positive selection using Dynabeads® CD8 Positive Isolation Kit (Life Technologies, Grand Island, N.Y.) and co-cultured with autologous mDC for four weeks. DCs were added weekly. Briefly, mDC was pulsed with synthetic peptides ([…]) for 6-8 hours at 37° C., and then treated with 20 μg/ml Mitomycin C (Sigma-Aldrich, St. Louis, Mo.) for 25 min at 37° C. and 5% CO2. […]
Antigen-specific immune responses were evaluated by the IFN-γ Elispot kit (BD Biosciences) following previously described methods. […] The colored spots, representing cytokine-producing cells, were counted under a dissecting microscope. The results were evaluated by an automated ELISPOT reader system using KS ELISPOT 4.3 software.

Row | Sequence | antigen-specific T cell response: recognition of peptide-pulsed T2 cells by peptide-specific CTLs (IFN-γ ELISPOT)
1 | FLLPALIFAV (listed as Homo sapiens) [CD133p804, CD133 HLA-A2 peptide, position 804-813] | can efficiently recognize T2 pulsed with these antigens and boost the T cell immune response
2 | ILSAFSVYV (listed as Homo sapiens) [CD133p405, CD133 HLA-A2 peptide, position 405-413] | can efficiently recognize T2 pulsed with these antigens and boost the T cell immune response
3 | YLQWIEFSI (listed as Homo sapiens) [CD133p753, CD133 HLA-A2 peptide] | can efficiently recognize T2 pulsed with these antigens and boost the T cell immune response
